The record followed here is ChEMBL document CHEMBL3399924, “Indirubin 3'-(O-oxiran-2-ylmethyl)oxime: a novel anticancer agent” (Bioorg Med Chem Lett, 2015).

What is called IC50 is the concentration needed to halve the response being measured. The term inhibition denotes the relative decrease from the control value, in per cent. Low readings indicate a response near the control, high ones a response far below the control.

Active and inactive are the calls of the source. No cut-off for these calls is given here.

In data set [1] the test system is HepG2. Description: Antiproliferative activity against human HepG2 cells assessed cell survival after 24 hrs by alamarBlue assay. It is filed as functional, cell-based.
The test system of data set [2] is HepG2. Description: Cytotoxicity against human HepG2 cells assessed cell death after 24 hrs at 1 uM by alamarBlue assay relative to control. It is filed as functional. As to conditions: HepG2, 24 h. (In general: Alamar Blue is a resazurin reagent that responds to reducing activity.)
Data set [3] deals with HepG2. The data set can be described thus: Cytotoxicity against human HepG2 cells assessed cell death after 72 hrs at 2 uM by alamarBlue assay relative to control. It counts as functional. To be noted: HepG2, 72 h.
The subject of data set [4] is HepG2. Description: Cytotoxicity against human HepG2 cells assessed cell death after 72 hrs at 3 uM by alamarBlue assay relative to control. It counts as functional. As to conditions: HepG2, 72 h.
For data set [5], the system named is HepG2. The data set can be described thus: Cytotoxicity against human HepG2 cells assessed cell death after 72 hrs by alamarBlue assay relative to control. As to conditions: HepG2, 72 h. It is filed as functional, cell-based.
Data set [6] deals with HepG2. The data set can be described thus: Drug metabolisam in human HepG2 cells assessed as indirubin 3'-(O-2,3-dihydroxypropyl)oxime formation at 1 uM by mass spectrometry. It counts as ADME, cell-based. As to conditions: hepg2, 1 µM.
The subject of data set [7] is HepG2. Description: Cytotoxicity against human HepG2 cells assessed cell survival rate after 24 hrs at 2 uM by alamarBlue assay relative to control. It is filed as functional.
For data set [8], the system named is HepG2. The data set can be described thus: Cytotoxicity against human HepG2 cells assessed cell survival rate after 72 hrs at 2 uM by alamarBlue assay relative to control. It is filed as functional.
The nature of data set [9]: Retention time of the compound by HPLC chromatogram. It counts as physicochemical.
For data set [10], the system named is HepG2. Description: Cytotoxicity against human HepG2 cells assessed cell survival after 24 hrs at 10 uM by alamarBlue assay. It is filed as functional, cell-based.
Data set [11] deals with HepG2. The data set can be described thus: Drug formation in human HepG2 cells treated at 1 uM Epox/Ind by mass spectrometry. It counts as ADME, cell-based. As to conditions: hepg2, 1 µM.
The mark [12] stands for this setting: Homo sapiens, HepG2, 24 h, read-out: IC50.

As to `O=C1Nc2ccccc2/C1=C1/Nc2ccccc2/C1=N\O`, the IC50 in the data set on HepG2 [1] (setting [12]) was determined as 15 µM.
Turning to `O=C1Nc2ccccc2/C1=C1/Nc2ccccc2C1=O` [INDIRUBIN], the IC50 result in the data set with HepG2 [1] (hepg2) is “Not Active”.
Turning to `O=C1Nc2ccccc2/C1=C1/Nc2ccccc2/C1=N\OCC1CO1` (stereo not drawn), the IC50 in the data set on HepG2 [1] (setting [12]) was 1.7 µM; in the data set with HepG2 [5], 2.3 µM. In the data set with HepG2 [2], this compound had an inhibition at 1 µM of 25%. The inhibition at 2 µM with HepG2 [3] was determined as 31%. At 3 µM the inhibition in the data set on HepG2 [4] was 89%. Further, the Drug metabolism result with HepG2 [6] was “metabolite_detected”. For the same compound, the Activity in the data set on HepG2 [7] turned out to be 69%; in the data set with HepG2 [8], 44%. The Retention_time in [9] is 4.3 min.
For `O=C1Nc2ccccc2/C1=N\OCC1CO1` (stereo not drawn), the result in the data set on HepG2 [10] was inactive.
Consider `O=C1Nc2ccccc2/C1=C1/Nc2ccccc2/C1=N\OCC(O)CO` (stereo not drawn), for which the IC50 with HepG2 [1] (setting [12]) worked out at 2.1 µM; in the data set with HepG2 [5] it was 2.8 µM. Moreover, in the data set on HepG2 [3], at 2 µM the inhibition was 15%. Moreover, the inhibition at 3 µM in the data set with HepG2 [4] was 58%. Moreover, in the data set with HepG2 [11], the Drug metabolism entry is given as “metabolite_detected”. In data set [9], the Retention_time was 3.392 min.
